Results published in patent publication US7173040B2, “Farnesyl transferase inhibiting 6-[(substituted phenyl)methyl]-quinoline and quinazoline derinazoline derivatives” (Janssen Pharmaceutica N.V., priority 2000, dated 2007).

In the case of Cn1cncc1C(O)(c1ccc([N+](=O)[O-])cc1)c1ccc2c(c1)c(-c1cccc(Cl)c1)cc(=O)n2C (racemic) [Example B4, (±)-4-(3-chlorophenyl)-6-[hydroxy(1-methyl-1H-imidazol-5-yl)(4-nitrophenyl)methyl]-1-methyl-2(1H)-quinolinone], the melting point is reported as 230 °C.
In the case of Cn1cncc1C(O)(c1ccc(-c2ccc(Cl)cc2)cc1)c1ccc2c(c1)c(-c1cccc(Cl)c1)cc(=O)n2C (racemic) [Example B10, (±)-6-[(4′-chloro[1,1′-biphenyl]-4-yl)hydroxy(1-methyl-1H-imidazol-5-yl)methyl]-4-(3-chlorophenyl)-1-methyl-2(1H)-quinolinone], the melting point is reported as 236 °C.
Cn1cncc1C(N)(c1ccc(C#N)cc1)c1ccc2c(c1)c(-c1cccc(Cl)c1)cc(=O)n2C (stereo not shown) [Example B41d, 4-[amino[4-(3-chlorophenyl)-1,2-dihydro-1-methyl-2-oxo-6quinolinyl](1-methyl-1H-imidazol-5-yl)methyl]-benzonitrile] gave a melting point of 245 °C.
Cn1cnnc1C(N)(c1ccc(Cl)cc1)c1ccc2c(c1)c(-c1cccc(Cl)c1)cc(=O)n2C (stereo not shown) [Example B22b, 6-[amino(4-chlorophenyl)(4-methyl-4H-1,2,4-triazol-3-yl)methyl]-4-(3-chlorophenyl)-1-methyl-2(1H)-quinolinone] showed a melting point of 210 °C.
In the case of Cn1cnnc1C(O)(c1ccc(Cl)cc1)c1ccc2c(c1)c(-c1cccc(Cl)c1)cc(=O)n2Cc1ccc(C#N)cc1 (stereo not shown) [Example B33, 4-[[4-(3-chlorophenyl)-6-[(4-chlorophenyl)hydroxy(4-methyl-4H-1,2,4-triazol-3-yl)methyl]-2-oxo-1(2H)-quinolinyl]methyl]-benzonitrile], the melting point is reported as 185 °C.
For Cn1cnnc1C(O)(c1ccc(Cl)cc1)c1ccc2[nH]c(=O)cc(-c3cccc(Cl)c3)c2c1 (stereo not shown) [Example B32, 4-(3-chlorophenyl)-6-[(4-chlorophenyl)hydroxy(4-methyl-4H-1,2,4-triazol-3-yl)methyl]-2(1H)-quinolinone], the melting point was > 260 °C.
In the case of Cn1cncc1C(O)(c1ccc(CO)cc1)c1ccc2c(c1)c(-c1cccc(Cl)c1)cc(=O)n2C (racemic) [Example B9, (±)-4-(3-chlorophenyl)-6-[hydroxy[4-(hydroxymethyl)phenyl](1-methyl-1H-imidazol-5-yl)methyl]-1-methyl-2(1H)-quinolinone], the melting point is reported as 273 °C.
Compound CC(O)c1ccc(C(O)(c2ccc3c(c2)c(-c2cccc(Cl)c2)cc(=O)n3C)c2cncn2C)cc1 (racemic) [Example B17, (±)-4-(3-chlorophenyl)-6-[hydroxy[4-(1-hydroxyethyl)phenyl](1-methyl-1H-imidazol-5-yl)methyl]-1-methyl-2(1H)-quinolinone] has a melting point of 181 °C.
With Cn1cnnc1C(C)(c1ccc(Cl)cc1)c1ccc2c(c1)c(-c1cccc(Cl)c1)cc(=O)n2C.O=C(O)C(=O)O (stereo not shown) [Example B34, 4-(3-chlorophenyl)-6-[1-(4-chlorophenyl)-1-(4-methyl-4H-1,2,4-triazol-3-yl)ethyl]-1-methyl-2(1H)-quinolinone ethanedioate (1:1)] the melting point was 130 °C.
Compound Cn1cncc1C(O)(c1cccc(CO)c1)c1ccc2c(c1)c(-c1cccc(Cl)c1)cc(=O)n2C (stereo not shown) [Example B45b, 4-(3-chlorophenyl)-6-[hydroxy[3-(hydroxymethyl)phenyl](1-methyl-1H-imidazol-5-yl)methyl]-1-methyl-2(1H)-quinolinone] has a melting point of 150 °C.
Compound Cn1cnnc1C(O)(c1ccc(I)cc1)c1ccc2c(c1)C(c1cccc(Cl)c1)Nc1nnnn1-2 (stereo not drawn) [Example B46, 5-(3-chlorophenyl)-4,5-dihydro-α-(4-iodophenyl)-α-(4-methyl-4H-1,2,4-triazol-3-yl)-tetrazolo[1,5-a]quinazoline-7-methanol] has a melting point of 201 °C.
Work on Cn1cnnc1C(CCl)(c1ccc(Cl)cc1)c1ccc2c(c1)c(-c1cccc(Cl)c1)cc(=O)n2C (stereo not shown) [Example B31, 6-[2-chloro-1-(4-chlorophenyl)-1-(4-methyl-4H-1,2,4-triazol-3-yl)ethyl]-4-(3-chlorophenyl)-1-methyl-2(1H)-quinolinone] yielded a melting point of 260 °C.
Cn1c(=O)cc(-c2cccc(Cl)c2)c2cc(C(O)(c3ccc(Cl)cc3)c3cnccc3N)ccc21 (stereo not shown) [Example B42, 6-[(4amino-3-pyridinyl)(4-chlorophenyl)hydroxymethyl]-4-(3-chlorophenyl)-1-methyl-2(1H)-quinolinone] gave a melting point of 262 °C.
For Cn1cnnc1C(c1ccc(Cl)cc1)c1ccc2c(c1)c(-c1cccc(Cl)c1)nc1nnnn12 (stereo not shown) [Example B20, 5-(3-chlorophenyl)-7-[(4-chlorophenyl)(4methyl-4H-1,2,4-triazol-3-yl)methyl]-tetrazolo[1,5-a]quinazoline], the melting point was 217 °C.
With Cn1c(=O)cc(-c2cccc(Cl)c2)c2cc(C(O)(c3ccc(Cl)cc3)c3cnccc3Cl)ccc21 (stereo not shown) [Example B39, 4-(3-chlorophenyl)-6-[(4-chlorophenyl)(4-chloro-3-pyridinyl)hydroxymethyl]-1-methyl-2(1H)-quinolinone] the melting point was 178 °C.
With Cn1cncc1C(O)(c1ccc2c(c1)OCCO2)c1ccc2[nH]c(=O)nc(-c3cccc(Cl)c3)c2c1 (stereo not shown) [Example B30, 4-(3-chlorophenyl)-6-[(2,3-dihydro-1,4-benzodioxin-6-yl)hydroxy(1-methyl-1H-imidazol-5-yl)methyl]-2(1H)-quinazolinone] the melting point was > 260 °C.
Work on Cn1cncc1C(N)(c1ccc(CN)cc1)c1ccc2c(c1)c(-c1cccc(Cl)c1)cc(=O)n2C (stereo not shown) [Example B41e, 6-[amino[4-(aminomethyl)phenyl](1-methyl-1H-imidazol-5-yl)methyl]-4-(3-chlorophenyl)-1-methyl-2(1H)-quinolinone] yielded a melting point of 150 °C.
With Cn1cncc1C(O)(c1ccc(C(=O)O)cc1)c1ccc2c(c1)c(-c1cccc(Cl)c1)cc(=O)n2C (racemic) [Example B19, (±)-4-[[4-(3-chlorophenyl)-1,2-dihydro-1-methyl-2-oxo-6-quinolinyl]hydroxy(1-methyl-1H-imidazol-5-yl)methyl]benzoic acid] the melting point was > 260 °C.
In the case of Cl.Cn1cncc1C(O)(c1ccc(C=O)cc1)c1ccc2[nH]c(=O)cc(-c3cccc(Cl)c3)c2c1 (racemic), the melting point is reported as > 260 °C.
CC(C)OC(=O)c1cccc(C(O)(c2ccc3c(c2)c(-c2cccc(Cl)c2)cc(=O)n3C)c2cncn2C)c1 (stereo not shown) [Example B45a, 1-methylethyl 3-[[4-(3-chlorophenyl)-1,2-dihydro-1-methyl-2-oxo-6-quinolinyl]hydroxy(1-methyl-1H-imidazol-5-yl)methyl]-benzoate] showed a melting point of 150 °C.
Cn1cnnc1C(c1ccc(I)cc1)c1ccc2c(c1)c(-c1cccc(Cl)c1)nc1nnnn12 (stereo not shown) [Example B26b, tetrazolo[1,5-a]quinazoline, 5-(3-chlorophenyl)-7-[(4-iodophenyl)(4methyl-4H-1,2,4-triazol-3-yl)methyl]-] showed a melting point of 150 °C.
With Cn1cnnc1C(O)(c1ccc(Cl)cc1)c1ccc2c(c1)c(-c1cccc(Cl)c1)cc(=O)n2C (stereo not shown) [Example B13, 4-(3-chlorophenyl)-6-[(4-chlorophenyl)hydroxy(4-methyl-4H-1,2,4-triazol-3-yl)methyl]-1-methyl-2(1H)-quinolinone] the melting point was 182 °C.
